This is an account of results in patent US8129197B2, “Cholesterol loaded insect cell membranes as test proteins” (SOLVO Biotechnológial ZRT., priority 2006, dated 2012).

Series [1] has as its target T1, mouseBsep (Mus musculus, UniProt Q9QY30).
T1 sequence (Q9QY30 1-1321): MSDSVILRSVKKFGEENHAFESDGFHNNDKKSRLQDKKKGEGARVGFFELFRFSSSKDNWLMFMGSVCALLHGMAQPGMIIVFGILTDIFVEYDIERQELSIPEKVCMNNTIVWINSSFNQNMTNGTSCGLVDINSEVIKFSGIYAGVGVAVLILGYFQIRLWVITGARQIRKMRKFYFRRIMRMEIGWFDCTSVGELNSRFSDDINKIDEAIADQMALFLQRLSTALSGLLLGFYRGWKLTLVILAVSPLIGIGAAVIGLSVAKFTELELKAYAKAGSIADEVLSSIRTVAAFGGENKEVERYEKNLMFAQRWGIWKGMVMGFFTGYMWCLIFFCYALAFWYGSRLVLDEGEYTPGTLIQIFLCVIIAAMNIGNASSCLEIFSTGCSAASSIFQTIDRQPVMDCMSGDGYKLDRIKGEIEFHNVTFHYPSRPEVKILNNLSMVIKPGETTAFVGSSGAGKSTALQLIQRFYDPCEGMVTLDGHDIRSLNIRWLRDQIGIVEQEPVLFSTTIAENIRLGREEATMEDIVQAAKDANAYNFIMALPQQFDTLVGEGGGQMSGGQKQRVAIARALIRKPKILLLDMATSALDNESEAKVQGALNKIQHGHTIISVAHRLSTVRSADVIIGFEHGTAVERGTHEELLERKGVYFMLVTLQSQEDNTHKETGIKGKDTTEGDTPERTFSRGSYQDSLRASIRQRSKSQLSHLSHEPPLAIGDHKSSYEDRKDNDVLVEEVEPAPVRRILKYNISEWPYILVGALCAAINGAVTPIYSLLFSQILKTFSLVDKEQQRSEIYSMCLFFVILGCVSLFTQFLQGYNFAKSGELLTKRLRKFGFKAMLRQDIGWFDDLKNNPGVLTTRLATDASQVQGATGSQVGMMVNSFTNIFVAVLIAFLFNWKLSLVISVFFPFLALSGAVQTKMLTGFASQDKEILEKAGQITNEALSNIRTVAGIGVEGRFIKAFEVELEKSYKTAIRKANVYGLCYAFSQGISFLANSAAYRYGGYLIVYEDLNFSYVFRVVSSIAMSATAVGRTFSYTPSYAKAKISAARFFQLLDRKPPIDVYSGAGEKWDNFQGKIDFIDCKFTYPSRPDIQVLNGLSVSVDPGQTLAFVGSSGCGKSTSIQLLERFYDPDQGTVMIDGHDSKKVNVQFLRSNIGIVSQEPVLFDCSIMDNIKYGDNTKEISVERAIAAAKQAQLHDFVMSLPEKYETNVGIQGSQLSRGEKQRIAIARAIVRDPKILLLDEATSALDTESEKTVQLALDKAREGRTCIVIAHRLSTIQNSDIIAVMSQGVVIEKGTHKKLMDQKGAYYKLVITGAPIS
Nature of the series: Vanadate sensitive ATPase assay, mouseBsep Sf9 membrane vesicles. It counts as biochemical. Further details: made in house; host or cells: baculovirus infected Sf9 (Spodoptera frugiperda) cells. An excerpt: The samples treated with cholesterol@RAMEB complex were compared with untreated vesicles.

Series [2] has as its target T1, mouseBsep. As to the method:
(§1) Measurement of the vesicular transport activity in case of Bsep: The transport activity measurements were carried out with purified membrane vesicles containing human, rat or mouse Bsep (ABCB11, sPgp) transporter isolated from baculovirus infected Sf9 (Spodoptera frugiperda)cells. The membrane preparations contain 5-16% closed, inside-out oriented, membrane vesicles. The transporter pumps the molecules inside of these vesicles. The vesicles can be separated by rapid filtration of the membrane suspension through a glass filter or through a nitrocellulose membrane (using vacuum).
(§2) The quantitative determination of the transported molecule can be done in several ways, like: HPLC, LC/MS, but also fluorescent or radioactive labeling is also suitable. Tritium labeled substrates were used in the assays and the mode of detection was liquid-scintillation.
(§3) Assay Design and Main Steps for Bsep • Prepare an appropriate concentration of membrane suspension in assay buffer; add the unlabeled and ^3H-labeled substrates to the suspension.

For another series, the target named is ratBsep (Rattus norvegicus, UniProt O70127). As to the method:
as §1, §2, §3

For the next series, the target named is humanBSEP (Homo sapiens, UniProt O95342). Here is the method: as §1, §2, §3
In series [3] the target is T2, wild-type ABCG2 (Homo sapiens, UniProt Q9UNQ0).
T2 sequence (Q9UNQ0 1-655): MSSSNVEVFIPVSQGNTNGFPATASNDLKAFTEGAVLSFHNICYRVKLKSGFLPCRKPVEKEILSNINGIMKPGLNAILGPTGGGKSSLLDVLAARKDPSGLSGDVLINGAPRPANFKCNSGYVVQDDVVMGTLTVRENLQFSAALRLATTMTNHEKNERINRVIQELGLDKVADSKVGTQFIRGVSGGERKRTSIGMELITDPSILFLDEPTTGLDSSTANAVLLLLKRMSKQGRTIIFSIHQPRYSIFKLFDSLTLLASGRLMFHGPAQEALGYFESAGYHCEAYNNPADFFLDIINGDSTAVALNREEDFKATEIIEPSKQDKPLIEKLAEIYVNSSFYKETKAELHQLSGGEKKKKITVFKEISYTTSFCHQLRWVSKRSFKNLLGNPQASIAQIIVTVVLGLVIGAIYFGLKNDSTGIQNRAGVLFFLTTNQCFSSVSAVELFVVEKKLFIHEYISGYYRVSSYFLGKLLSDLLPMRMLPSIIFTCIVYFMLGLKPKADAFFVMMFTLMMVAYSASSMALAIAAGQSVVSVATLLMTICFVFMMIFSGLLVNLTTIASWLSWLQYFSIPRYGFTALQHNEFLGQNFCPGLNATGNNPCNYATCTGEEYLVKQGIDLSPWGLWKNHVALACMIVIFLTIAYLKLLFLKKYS
The series is described as follows: Vesicular transport assay, inside-out ABCG2-Sf9 membrane vesicles. As to the method: Measurement of the vesicular transport activity: The transport activity measurements were carried out with purified membrane vesicles containing ABCG2 or Bsep isolated from baculovirus infected Sf9 (Spodoptera frugiperda) cells or mammalian (ABCG2-M) cells. The membrane preparations contain 5-16% closed, inside-out oriented, membrane vesicles. The transporter pumps the molecules inside of these vesicles. The vesicles can be separated by rapidly filtrating of the membrane suspension through a glass filter or through a nitrocellulose membrane (using vacuum).
as §2
Measurement of the vesicular transport activity in case of ABCG2: More closely, as examples, inside-out membrane vesicles were incubated in the presence or absence of 4 mM ATP. […] The transport was stopped by addition of cold wash buffer (40 mM MOPS-Tris (pH 7.0), 70 mM KCl).
The transport was stopped by addition of cold wash buffer (10 mM Tris-HCl, pH 7.4; 250 mM sucrose and 100 mM NaCl).
For estrone-3-sulfate vesicular transport 10 mM Tris-HCl, (pH 7.4), 250 mM sucrose, and 10 mM MgCl2 containing buffer were incubated at 32° C. for 1 min. The transport was stopped by addition of cold wash buffer (10 mM Tris-HCl, pH 7.4; 250 mM sucrose and 100 mM NaCl).
The incubation mix was then rapidly filtered through class B glass fiber filters (pore size, 0.1 μm). Filters were washed with 5×200 μl of ice cold wash buffer and radioactivity retained on the filter was measured by liquid scintillation counting. ATP-dependent transport was calculated by subtracting the values obtained in the absence of ATP from those in the presence of ATP.
Exemplary Assay Design and Main Steps for ABCG2 • Prepare an appropriate concentration of membrane suspension in assay buffer; add the unlabeled and ^3H-labeled substrates to the suspension.

The target of another series is T3, ABCG2-R482T (Homo sapiens, UniProt Q9UNQ0, R482T).
T3 construct: made in house; host or cells: Sf9 cells infected with recombinant baculovirus
T3 sequence (Q9UNQ0 1-655 R482T): T2 sequence (Q9UNQ0 1-655) with R482T
Nature of the series: Vesicular MTX transport, Sf9 vesicles with R482T variant. It counts as biochemical. The following applies: irrespective of the membrane cholesterol content.

A further series has as its target T4, R482G-ABCG2 (Homo sapiens, UniProt Q9UNQ0, R482G).
T4 construct: made in house; host or cells: Sf9 cells infected with recombinant baculovirus
T4 sequence (Q9UNQ0 1-655 R482G): T2 sequence (Q9UNQ0 1-655) with R482G
The series is described as follows: Vesicular MTX transport, Sf9 vesicles with R482G variant. The following applies: control and cholesterol-loaded Sf9 membrane vesicles. It counts as biochemical. As to the method: MTX uptake was measured at 100 μM MTX concentration for 5 min at 37° C. in membrane vesicles containing the human wild-type ABCG2 (WT), or R482G-ABCG2 (G) transporter.
MTX and ESG uptake was measured for 5 min at 37° C. at 5 mM ATP in membrane vesicles containing the human wild-type ABCG2 (WT), or R482G-ABCG2 (G) transporter. […] The mean values±SD are presented.
Vesicular transport studies: In these experiments we carried out direct, ATP-dependent substrate transport measurements by using isolated inside-out membrane vesicles of ABCG2-expressing Sf9 cells.

Series [4] concerns the target T2, wild-type ABCG2. The following applies: 2 min.
Protocol: Following UV-irradiation, gel-electrophoresis and electroblotting, the labeled bands were visualized by Phospho-Imager.
Isolated Sf9 cell membranes, containing the same amount of wild-type ABCG2 protein were loaded with cholesterol by preincubation with 4 mM C-CD, as described in the Methods. Cholesterol-loaded membrane vesicles contained 50 μg cholesterol/mg membrane protein, while the control membranes contained 8 μg cholesterol/mg membrane protein.

Residue numbers refer to the chain shown, from its start. Read-outs that look alike come from different tables or passages of the source.

Sequence of ratBsep (O70127 whole entry): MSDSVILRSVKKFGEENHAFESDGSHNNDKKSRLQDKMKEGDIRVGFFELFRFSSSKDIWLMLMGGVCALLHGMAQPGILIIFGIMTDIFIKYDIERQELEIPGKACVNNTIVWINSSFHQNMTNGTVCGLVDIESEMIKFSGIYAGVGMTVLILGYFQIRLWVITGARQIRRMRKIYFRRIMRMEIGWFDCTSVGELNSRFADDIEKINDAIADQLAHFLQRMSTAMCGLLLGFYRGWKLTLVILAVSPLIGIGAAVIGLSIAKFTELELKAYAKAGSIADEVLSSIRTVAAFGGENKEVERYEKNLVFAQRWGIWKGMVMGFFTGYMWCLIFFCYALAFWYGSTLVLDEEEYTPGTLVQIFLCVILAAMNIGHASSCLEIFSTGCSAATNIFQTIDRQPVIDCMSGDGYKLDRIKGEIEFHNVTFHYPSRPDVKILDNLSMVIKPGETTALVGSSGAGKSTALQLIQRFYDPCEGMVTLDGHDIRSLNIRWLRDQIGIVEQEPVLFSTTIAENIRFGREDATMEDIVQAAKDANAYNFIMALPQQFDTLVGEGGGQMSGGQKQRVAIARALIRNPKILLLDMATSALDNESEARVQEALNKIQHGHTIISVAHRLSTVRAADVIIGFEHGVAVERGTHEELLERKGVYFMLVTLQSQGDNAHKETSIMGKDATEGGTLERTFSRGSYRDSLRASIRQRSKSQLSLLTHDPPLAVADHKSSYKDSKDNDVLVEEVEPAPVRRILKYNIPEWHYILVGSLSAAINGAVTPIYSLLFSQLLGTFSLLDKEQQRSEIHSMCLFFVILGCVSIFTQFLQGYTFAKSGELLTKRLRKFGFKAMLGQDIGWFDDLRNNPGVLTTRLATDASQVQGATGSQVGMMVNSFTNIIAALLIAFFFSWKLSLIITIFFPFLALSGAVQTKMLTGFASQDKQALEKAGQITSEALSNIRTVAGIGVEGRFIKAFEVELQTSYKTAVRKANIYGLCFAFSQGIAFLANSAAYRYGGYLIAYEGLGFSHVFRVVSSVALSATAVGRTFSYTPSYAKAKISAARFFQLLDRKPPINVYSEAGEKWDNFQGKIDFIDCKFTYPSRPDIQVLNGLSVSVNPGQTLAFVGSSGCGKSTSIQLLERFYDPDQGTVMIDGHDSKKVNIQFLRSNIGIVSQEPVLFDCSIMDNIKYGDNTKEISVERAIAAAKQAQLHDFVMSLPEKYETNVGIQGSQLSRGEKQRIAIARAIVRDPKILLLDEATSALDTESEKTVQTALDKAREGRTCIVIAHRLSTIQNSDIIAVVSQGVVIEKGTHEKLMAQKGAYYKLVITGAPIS
Sequence of humanBSEP (O95342 whole entry): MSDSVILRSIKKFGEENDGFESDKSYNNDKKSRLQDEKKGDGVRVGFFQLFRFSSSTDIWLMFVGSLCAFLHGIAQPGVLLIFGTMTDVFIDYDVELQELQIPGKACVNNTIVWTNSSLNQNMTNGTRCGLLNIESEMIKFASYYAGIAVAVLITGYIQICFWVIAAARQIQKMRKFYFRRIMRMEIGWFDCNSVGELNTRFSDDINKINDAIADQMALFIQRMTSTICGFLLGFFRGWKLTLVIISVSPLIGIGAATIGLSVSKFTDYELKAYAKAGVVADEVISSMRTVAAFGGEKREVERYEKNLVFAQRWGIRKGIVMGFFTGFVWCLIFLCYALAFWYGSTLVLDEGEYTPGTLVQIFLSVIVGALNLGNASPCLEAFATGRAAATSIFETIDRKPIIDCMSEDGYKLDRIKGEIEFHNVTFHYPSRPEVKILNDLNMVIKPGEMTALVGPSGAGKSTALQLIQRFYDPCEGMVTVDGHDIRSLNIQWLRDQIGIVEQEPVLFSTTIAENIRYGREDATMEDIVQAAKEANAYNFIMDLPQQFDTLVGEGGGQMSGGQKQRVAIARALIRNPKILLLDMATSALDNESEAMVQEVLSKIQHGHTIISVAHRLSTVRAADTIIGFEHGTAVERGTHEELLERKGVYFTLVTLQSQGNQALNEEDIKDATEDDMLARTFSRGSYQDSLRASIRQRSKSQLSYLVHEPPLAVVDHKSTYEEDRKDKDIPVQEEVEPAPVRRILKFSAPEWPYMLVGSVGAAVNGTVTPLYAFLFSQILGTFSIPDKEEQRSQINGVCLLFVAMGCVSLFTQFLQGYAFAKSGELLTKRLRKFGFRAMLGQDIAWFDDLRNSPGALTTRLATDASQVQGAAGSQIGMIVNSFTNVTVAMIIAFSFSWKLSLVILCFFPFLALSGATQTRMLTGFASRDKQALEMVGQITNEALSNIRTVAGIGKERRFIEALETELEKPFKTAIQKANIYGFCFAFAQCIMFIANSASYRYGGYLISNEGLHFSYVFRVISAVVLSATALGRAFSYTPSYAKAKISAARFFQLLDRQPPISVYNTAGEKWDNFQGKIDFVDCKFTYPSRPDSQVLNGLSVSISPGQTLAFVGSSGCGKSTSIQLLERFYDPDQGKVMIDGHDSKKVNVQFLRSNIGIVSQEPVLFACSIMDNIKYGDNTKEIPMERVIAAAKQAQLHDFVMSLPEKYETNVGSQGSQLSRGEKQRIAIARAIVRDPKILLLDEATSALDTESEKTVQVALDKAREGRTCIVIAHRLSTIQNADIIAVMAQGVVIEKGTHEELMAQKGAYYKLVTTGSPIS

Take `C[C@H](CCC(=O)NCCS(=O)(=O)O)[C@H]1CC[C@H]2[C@@H]3[C@H](O)C[C@@H]4C[C@H](O)CC[C@]4(C)[C@H]3CC[C@]12C` [taurochenodeoxycholate]: the “Vanadate sensitive ATPase activity in the presence of the substrate” value on mouseBsep [1] (cholesterol loaded mouseBsep vesicles, basal 4.7) was 39 nmol Pi/mg prot/min; on mouseBsep [1] (untreated mouseBsep vesicles, basal 37), 64 nmol Pi/mg prot/min.
Turning to `C[C@H](CCC(=O)NCCS(=O)(=O)O)[C@H]1CC[C@H]2[C@@H]3[C@H](O)C[C@@H]4C[C@H](O)CC[C@]4(C)[C@H]3C[C@H](O)[C@]12C` [TC, Taurocholic acid], the “VMAX of taurocholate transport” value at mouseBsep [2] (mouseBsep-Sf9 + Chol) was 1843 pmol TC/mg prot/min; at mouseBsep [2] (mouseBsep-Sf9 CTRL), 1199 pmol TC/mg prot/min; at ratBsep (ratBsep-Sf9 + Chol), 121.3 pmol TC/mg prot/min; on ratBsep (ratBsep-Sf9 CTRL), 14.54 pmol TC/mg prot/min; at humanBSEP (humanBSEP-Sf9 + Chol), 323 pmol TC/mg prot/min; on humanBSEP (humanBSEP-Sf9 CTRL), 169.4 pmol TC/mg prot/min.
With `CN(Cc1cnc2nc(N)nc(N)c2n1)c1ccc(C(=O)N[C@@H](CCC(=O)O)C(=O)O)cc1` [methotrexate], the “Increase of Vmax of vesicular transport by cholesterol loading” value on wild-type ABCG2 [3] is reported as “six-fold”. Besides, the MTX transport rate entry at ABCG2-R482T is given as “below 50 pmoles/mg membrane protein/min”. On R482G-ABCG2, the “MTX transport (in words)” value was “very low”.
Regarding `CC(C)CCC[C@@H](C)[C@H]1CC[C@H]2[C@@H]3CC=C4C[C@@H](O)CC[C@]4(C)[C@H]3CC[C@]12C` [cholesterol], the “mean relative value of ABCG2 labeling (basic level of nucleotide trapping) after cholesterol loading” value at wild-type ABCG2 [4] was found to be 105%. For the same compound, the “Increase of maximum transport rate of ABCG2 by increasing membrane cholesterol levels” value at wild-type ABCG2 [3] (human) is given as “up to 20 fold”.
